{"source": "patent US11247973B2", "about": "(The University of Durham, priority 2016, dated 2022)", "key": {"RSV [1]": {"system": "RSV", "experiment": "Plaque reduction assay in Vero cells (standard and time of addition)", "type": "cell-based", "details": "human respiratory syncytial virus"}, "[2]": {"experiment": "Cell cytotoxicity CC50 assay (A549 and HeLa cells)", "type": "cell-based", "details": "human, 6-8 days, DMEM+2% FCS", "excerpt": "(§1) Cells were obtained from ATCC and the virus preparation was subjected to one round of centrifugation through a 40% (V/V) glycerol to remove any interferon produced from infected cells. Growth medium was Dulbecco's modified Eagle's medium (DMEM) with 10% (v/v) foetal calf serum (FCS), Viral maintainance medium was DMEM+2% (v/v) FCS.\nCell Cytotoxicity—CC50 (Concentration at which 50% Cell Toxicity is Observed):\n(§2) A549 cells and HeLa cells were used to seed a set of 96 well plates grown until 50% confluent, a 2 fold serial dilution of the compound was performed on each cell line with DMSO (only) as control starting with 100 μM of the compound. Medium used was DMEM+2% FCS (normal medium for viral growth).\n(§3) Cells were allowed to grow for 6-8 days to mimic a TCID50 assay after which cell viability was determined by adding Almar blur (similar to XT) and reading at 600 nm (excitation 540 nm)."}, "[3]": {"experiment": "Microsomal clearance, dog", "type": "in vitro ADME", "details": "male, Beagle, pooled liver microsomes", "experimental": "Pooled human liver microsomes (pooled male and female), pooled rat liver microsomes (male Sprague Dawley rats) and pooled dog liver microsomes (male Beagle dog) are purchased from a reputable commercial supplier and stored at −80° C. prior to use.\nMicrosomes (final protein concentration 0.5 mg/mL), 0.1 M phosphate buffer pH 7.4 and compound 2 (final substrate concentration 3 μM; final DMSO concentration 0.25%) are pre-incubated at 37° C. prior to the addition of NADPH (final concentration 1 mM) to initiate the reaction. The final incubation volume is 50 μL. A control incubation is included for each compound tested where 0.1 M phosphate buffer pH 7.4 is added instead of NADPH (minus NADPH). Two control compounds are included with each species. All incubations are performed singularly for each test compound.\nCompounds are incubated for 0, 5, 15, 30 and 45 min. The control (minus NADPH) is incubated for 45 min only. The reactions are stopped by transferring 25 μL of incubate to 50 μL methanol at the appropriate time points. […] Following protein precipitation, the sample supernatants are combined in cassettes of up to 4 compounds, internal standard is added and samples analysed by LC-MS/MS. From a plot of ln peak area ratio (compound peak area/internal standard peak area) against time, the gradient of the line is determined."}, "[4]": {"experiment": "Mouse in vivo pharmacokinetic assay", "set-up": "species or system male CD-1 mice", "experimental": "Pharmacokinetic evaluation of compound 2 was performed in male CD-1 mice following intravenous (IV) and oral (PO) administration. For intravenous administration the compound was formulated in solution in 40:60 DMA:saline and was administered at 1 mg/kg via the tail vein. For oral administration the compound was formulated in suspension in water containing 1% methylcellulose and 0.1% Tween80, and was administered at 10 mg/kg by oral gavage. Blood samples were taken by cardiac puncture under terminal anaesthesia (isoflurane) at ten timepoints between 1 minute and 24 hours following IV administration, and at nine timepoints between 5 minutes and 24 hours following PO administration (n=3 per timepoint). Plasma was immediately obtained by centrifugation, and the resulting samples frozen until analysis. Samples, along with a calibration curve prepared by spiking the compound into control plasma, were subsequently prepared for quantitative analysis by precipitation of plasma proteins with acetonitrile. Analysis was by ultra high performance liquid chromatography (Agilent 1290 system) coupled to time of flight mass spectrometry, using electrospray ionisation (Agilent 6550 system). Pharmacokinetic parameters were determined by non-compartmental analysis of mean concentration data using Phoenix WinNonlin v6.4."}, "RSV [5]": {"system": "RSV", "experiment": "Cytopathic effect (CPE) assay", "type": "cell-based", "details": "human respiratory syncytial virus; A549 cells and HeLa cells, 6-8 days, DMEM+2% FCS; read-out: CPE IC50", "excerpt": "as §1\nCytopathic Effect (CPE) Assay—IC50:\nas §2, §3"}, "MDR1": {"system": "MDR1", "experiment": "MDR1-MDCK permeability assay", "type": "in vitro ADME", "details": "dog", "experimental": "(§4) MDR1-MDCK cells obtained from the NIH (Rockville, Md., USA) are used between passage numbers 6-30. Cells are seeded onto Millipore Multiscreen Transwell plates at 3.4×10^5 cells/cm^2. The cells are cultured in DMEM and media is changed on day 3. On day 4 the permeability study is performed. Cell culture and assay incubations are carried out at 37° C. in an atmosphere of 5% CO2 with a relative humidity of 95%. On the day of the assay, the monolayers are prepared by rinsing both basolateral and apical surfaces twice with Hanks Balanced Salt Solution (HBSS) at the desired pH warmed to 37° C. Cells are then incubated with HBSS at the desired pH in both apical and basolateral compartments for 40 min to stabilise physiological parameters.\n(§5) The dosing solutions are prepared by diluting compound 2 with assay buffer to give a final compound 2 concentration of 10 μM (final DMSO concentration of 1% v/v). The fluorescent integrity marker lucifer yellow is also included in the dosing solution. Analytical standards are prepared from test compound DMSO dilutions and transferred to buffer, maintaining a 1% v/v DMSO concentration.\n(§6) For assessment of A-B permeability, HBSS is removed from the apical compartment and replaced with compound 2 dosing solution. The apical compartment insert is then placed into a companion plate containing fresh buffer (containing 1% v/v DMSO). For assessment of B-A permeability, HBSS is removed from the companion plate and replaced with compound 2 dosing solution. Fresh buffer (containing 1% v/v DMSO) is added to the apical compartment insert, which is then placed into the companion plate.\n(§7) At 60 min the apical compartment inserts and the companion plates are separated and apical and basolateral samples diluted for analysis.\n(§8) Compound 2 permeability is assessed in duplicate. Compounds of known permeability characteristics are run as controls on each assay plate.\n(§9) Compound 2 and control compounds are quantified by LC-MS/MS cassette analysis using an 8-point calibration with appropriate dilution of the samples. The starting concentration (Co) is determined from the dosing solution and the experimental recovery calculated from Co and both apical and basolateral compartment concentrations.\n(§10) The integrity of the monolayer throughout the experiment is checked by monitoring lucifer yellow permeation using fluorimetric analysis. Lucifer yellow permeation is high if monolayers have been damaged."}, "MDR1-MDCK cells": {"system": "MDR1-MDCK cells", "experiment": "MDR1-MDCK permeability assay", "type": "in vitro ADME", "experimental": "as §4, §5, §6, §7, §8, §9, §10"}}, "note": "Read-outs that look alike come from different tables or passages of the source.", "data": [{"smiles": "O=C(CNc1c(F)c(F)nc(F)c1F)N[C@H]1N=C(c2ccccc2)c2ccccc2NC1=O", "note": "[Compound 2]", "values": [{"measurement": "IC50", "setting": "RSV [1]; compound added during infection only, read-out: Plaque IC50 (during infection only)", "result": 10900, "unit": "nM"}, {"measurement": "IC50", "setting": "RSV [1]; compound added post infection only, read-out: Plaque IC50 (post infection only)", "result": 2000, "unit": "nM"}, {"measurement": "IC50", "setting": "RSV [1]; standard plaque reduction assay, read-out: Plaque IC50", "result": 1100, "unit": "nM"}, {"measurement": "CC50", "setting": "[2]", "result": 100000, "unit": "nM"}, {"measurement": "microsomal CLint at 3 μM", "setting": "[3]; pH 7.4, 0.5 mg/mL protein, read-out: Intrinsic clearance - dog", "result": 7.05, "unit": "µL/min/mg"}, {"measurement": "half-life at 3 μM", "setting": "[3]; pH 7.4, read-out: t½ - dog", "result": 3.28, "unit": "h"}, {"measurement": "Pharmacokinetic assessment in words", "setting": "[4]; IV and PO", "result": "orally bioavailable with moderate clearance"}, {"measurement": "F", "setting": "[4]; PO 10 mg/kg vs IV 1 mg/kg", "result": 54.8, "unit": "%"}, {"measurement": "Vd", "setting": "[4]; male, CD-1, plasma, IV 1 mg/kg", "result": 3.65, "unit": "L/kg"}, {"measurement": "clearance", "setting": "[4]; male, CD-1, plasma, IV 1 mg/kg", "result": 63.1, "unit": "mL/min/kg"}, {"measurement": "half-life", "setting": "[4]; male, CD-1, plasma, IV 1 mg/kg, read-out: IV t½", "result": 0.983, "unit": "h"}, {"measurement": "Cmax", "setting": "[4]; male, CD-1, plasma, PO 10 mg/kg", "result": 349, "unit": "ng/mL"}, {"measurement": "half-life", "setting": "[4]; male, CD-1, plasma, PO 10 mg/kg, read-out: PO t½", "result": 2.2, "unit": "h"}, {"measurement": "IC50", "setting": "RSV [5]", "result": 625, "unit": "nM"}, {"measurement": "Papp A→B at 60 min, 10 μM", "setting": "MDR1; 10 μM, 60 min, read-out: Permeability A2B", "result": 0.553, "unit": "×10⁻⁶ cm/s"}, {"measurement": "Papp B→A at 60 min, 10 μM", "setting": "MDR1; 10 μM, 60 min, read-out: Permeability B2A", "result": 76.3, "unit": "×10⁻⁶ cm/s"}, {"measurement": "efflux ratio at 60 min, 10 μM", "setting": "MDR1; read-out: Efflux ratio B2A/A2B", "result": 138}, {"measurement": "Permeability assessment in words", "setting": "MDR1-MDCK cells", "result": "permeable compound but with a susceptibility for an efflux mechanism"}]}]}
